Data on one molecule can be found in US20040057908A1, “Oral compositions and use thereof” (priority 2003, published 2004).

Assay [1] concerns the target T1, GTF Ss (Streptococcus sanguinis, UniProt A3CLJ9). The assay can be described thus: GTF activity adsorbed onto sHA surface, GTF Ss. In kind it is biochemical, S. sanguinis. As for the experimental part: (§1) Glucosyltransferase activity was measured by the incorporation of [^14C-glucose] from labeled sucrose (NEN Research Products, Boston, Mass.) into glucans (Germaine et al., 1974; Venkitaraman et al., 1995). The GTF enzyme added to each sample for all assays was equivalent to the amount required to incorporate 1.0-1.5 μmol of glucose over the four hours reaction (1.0-1.5 units).
(§2) For surface assays, the GTFs were adsorbed to hydroxyapatite beads coated with clarified whole saliva (free of GTF activity), as detailed elsewhere (Koo et al., 2000c; Schilling and Bowen, 1988, Venkitaraman et al., 1995). The saliva-coated hydroxyapatite (sHA) beads were exposed to sufficient enzyme to saturate the surface as determined experimentally. Following the adsorption of the enzyme, the beads were washed 3 times with buffer to remove the loosely bound material and exposed to 300 μl of the two-fold dilution series of test compounds (or control) for 30 min. at the same concentrations described above. The beads were washed and exposed to 300 μl [^14C-glucose]-sucrose substrate (100.0 mmol/l sucrose, final concentration). The radiolabeled glucan formed was collected and quantified by scintillation counting (Germaine et al., 1974; Venkitaraman et al., 1995). All the solution and surface assays were done in quadruplicate in at least 3 different experiments.

For assay [2], the target named is T2, GTF C (Streptococcus mutans serotype c, UniProt P13470).
T2 construct: The supernatant was carefully collected as the source of GTF C; made in house; host or cells: Streptococcus mutans WHB 410 (endogenous gtfC; urea/Triton extract of washed cells, hydroxyapatite chromatography)
T2 sequence (P13470 35-1455): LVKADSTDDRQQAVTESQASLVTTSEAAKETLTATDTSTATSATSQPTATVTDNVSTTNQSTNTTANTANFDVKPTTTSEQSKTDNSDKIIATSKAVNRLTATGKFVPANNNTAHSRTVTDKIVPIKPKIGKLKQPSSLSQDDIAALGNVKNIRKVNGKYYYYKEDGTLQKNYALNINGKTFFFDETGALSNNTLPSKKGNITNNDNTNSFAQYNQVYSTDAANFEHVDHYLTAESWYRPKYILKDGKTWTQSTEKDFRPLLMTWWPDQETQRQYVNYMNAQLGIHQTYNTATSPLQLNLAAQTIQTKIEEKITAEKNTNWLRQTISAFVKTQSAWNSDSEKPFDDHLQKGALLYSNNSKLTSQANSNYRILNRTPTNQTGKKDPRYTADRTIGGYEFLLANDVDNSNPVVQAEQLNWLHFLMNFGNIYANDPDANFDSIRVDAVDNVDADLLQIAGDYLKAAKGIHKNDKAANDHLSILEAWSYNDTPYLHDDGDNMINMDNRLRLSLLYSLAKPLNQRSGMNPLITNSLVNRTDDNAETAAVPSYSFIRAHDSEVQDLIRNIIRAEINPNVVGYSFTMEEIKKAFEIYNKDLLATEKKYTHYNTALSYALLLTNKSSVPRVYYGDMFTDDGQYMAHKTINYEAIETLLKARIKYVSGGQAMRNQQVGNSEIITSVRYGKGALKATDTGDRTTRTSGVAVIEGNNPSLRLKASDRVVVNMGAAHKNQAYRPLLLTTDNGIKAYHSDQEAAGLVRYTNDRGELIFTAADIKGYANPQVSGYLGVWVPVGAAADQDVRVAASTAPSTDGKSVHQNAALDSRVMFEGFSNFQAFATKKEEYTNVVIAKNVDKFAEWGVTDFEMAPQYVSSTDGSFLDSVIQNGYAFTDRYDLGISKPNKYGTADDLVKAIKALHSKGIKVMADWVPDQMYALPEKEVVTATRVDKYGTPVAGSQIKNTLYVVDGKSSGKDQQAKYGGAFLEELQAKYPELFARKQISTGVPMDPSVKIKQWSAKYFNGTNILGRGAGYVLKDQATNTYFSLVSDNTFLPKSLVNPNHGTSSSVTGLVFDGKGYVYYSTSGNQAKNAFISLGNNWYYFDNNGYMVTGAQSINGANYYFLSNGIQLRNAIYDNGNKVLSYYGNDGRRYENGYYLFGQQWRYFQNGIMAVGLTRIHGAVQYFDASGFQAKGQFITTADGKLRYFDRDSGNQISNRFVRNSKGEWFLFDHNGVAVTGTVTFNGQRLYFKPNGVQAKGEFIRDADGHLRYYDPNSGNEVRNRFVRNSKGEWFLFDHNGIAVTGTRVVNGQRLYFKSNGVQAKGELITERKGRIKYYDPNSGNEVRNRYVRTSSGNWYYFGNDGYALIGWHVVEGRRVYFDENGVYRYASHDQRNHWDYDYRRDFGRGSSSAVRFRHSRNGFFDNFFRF
Kind of assay: GTF activity adsorbed onto sHA surface, GTF C. It is filed as biochemical. As for the experimental part:
as §1, §2

In assay [3] the test system is T3, streptococcal GTFs.
T3 construct: Streptococcus milleri KSB8, which harbors the gtfB gene from S. mutans GS-5 (for GTF B production)
Kind of assay: GTF activity in solution, all GTFs (B, C, D, Ss) stated together. The following applies: 1.33 mM. It is filed as biochemical, Streptococcus mutans, S. sanguinis. As for the experimental part:
The GTF enzyme added to each sample for all assays was equivalent to the amount required to incorporate 1.0-1.5 μmol of glucose over the four hours reaction (1.0-1.5 units).
The samples were incubated 37° C. with rocking for 4 h.
For this assay, a one-way layout experimental design was used in 4×2×7 factorial scheme (enzyme×state×dose). An analysis of variance was carried out and qualitative treatments were compared using Tukey test at level of 5% of significance (p<0.05). A non-linear regression was applied in order to evaluate effects of different concentrations.

For assay [4], the target named is T1, GTF Ss. The assay can be described thus: GTF activity in solution, GTF Ss. The following applies: read-out: GTF Ss sol. % of Inhib. In kind it is biochemical, S. sanguinis. As for the experimental part: as §1
(§3) For solution assays, purified GTF B, C, D and Ss were mixed with a two-fold dilution series of the test compounds (concentration ranging from 125 to 500 μM) and incubated with [^14C-glucose]-sucrose substrate (0.2 μCi/ml) (200.0 mmol/l sucrose, 40 μmol/l dextran 9000, 0.02% sodium azide in adsorption buffer—50 mM KCl, 1.0 mM KPO4, 1.0 mM CaCl2, 0.1 mM MgCl2−pH=6.5) to reach a final concentration of 100 mmol/l sucrose (200 μl final volume). For the control, the same reaction was carried out, where ethanol:DMSO (final concentration of 7.5% and 1.25%, v/v) or ethanol (final concentration of 5%, v/v) replaced the test agent solutions. The samples were incubated 37° C. with rocking for 4 h. After incubation, ice-cold ethanol (1.0 ml) was added and the samples were stored for 18 h, 4° C. for precipitation of glucans. Radiolabeled glucan was determined by scintillation counting (Germaine et al., 1974; Venkitaraman et al., 1995).

The subject of assay [5] is T3, streptococcal GTFs. The assay can be described thus: GTF activity adsorbed onto sHA surface, all GTFs stated together. It is filed as biochemical, Streptococcus mutans, S. sanguinis. The settings on record: 1.33 mM. As for the experimental part:
as §1
as §2, with “experiments. […]” for “experiments.”

For assay [6], the target named is T2, GTF C. The assay can be described thus: GTF activity in solution, GTF C. The following applies: read-out: GTF C sol. % of Inhib. It is filed as biochemical. As for the experimental part:
as §1, §3

The mark [7] stands for this setting: read-out: GTF Ss surf. % of Inhib.
[8] abbreviates: read-out: GTF C surf. % of Inhib.

Where “and” joins values, the source holds several entries; their conditions need not be identical. Equal entries are not always repeated.

In the case of `O=c1cc(-c2ccc(O)cc2)oc2cc(O)cc(O)c12` [Apigenin], the inhibition at 125 µM at GTF Ss [1] (setting [7]) turned out to be 13.8%; on GTF C [2] (setting [8]), 30%; on GTF Ss [4] it was 83.2%; at GTF C [6], 77.5%. The inhibition at 250 µM on GTF Ss [1] (setting [7]) amounted to 20.2%; at GTF C [2] (setting [8]), 42.1%; at GTF Ss [4], 91.2%; on GTF C [6] it was 87.5%. Further, the inhibition at 500 µM on GTF Ss [1] (setting [7]) amounted to 30%; at GTF C [2] (setting [8]) it was 60.5%; on GTF Ss [4] it was 92.7%; at GTF C [6], 90.5%. The IC50 (usually the concentration needed to halve the response being measured) on GTF Ss [1] (read-out: IC50 for surface-adsorbed GTF SS, surface-adsorbed) is over 1000 µM; on GTF C [2] (IC50 for surface-adsorbed GTF C, surface-adsorbed), 458 µM and 451 µM. The “inhibition of GTFs in solution” value in the assay with streptococcal GTFs [3] was 90-95%. For the same molecule, the “inhibition of GTFs on a surface” value with streptococcal GTFs [5] is 60-70%.
